{"source": "patent US11684595B2", "about": "“Characterization of the oral microbiome for the non-invasive diagnosis of Barrett's esophagus” (The Trustees of Columbia University in the City of New York, priority 2017, dated 2023)", "type_in_all_cases": "in vivo, human", "key": {"[1]": {"system": "culturable bacteria in the esophagus", "test": "Culture of esophageal brushings on TSA plates with 5% sheep blood after two weeks of mouth rinse (randomized trial)", "experimental": "A randomized controlled trial of chlorhexidine antimicrobial mouth rinse study was conducted in patients scheduled to undergo upper endoscopy. It is postulated that the microbiome may play a role in the development of various esophageal and other upper gastrointestinal diseases such as Barrett's esophagus and esophageal cancer. The microbiome of the upper gastrointestinal tract is heavily influenced by migration of bacteria from the mouth via swallowed secretions. Therefore, it stands to reason that altering the oral microbiome can directly impact the microbiome of the esophagus and gastric cardia. Chlorhexidine mouth rinse (i.e. an antiseptic oral rinse) effectively alters levels of many bacteria in the mouth, including anaerobes and species that are not easily cultured, and also has anti-inflammatory effects. A randomized open-label pilot study was performed to test this hypothesis that use of an antimicrobial mouth rinse alters the microbiome of the lower esophagus and gastric cardia.\n(§1) The enrolled subjects were those already scheduled for upper endoscopy for clinical indications. • Subjects were randomized 1:1 to receive 0.12% chlorhexidine mouth rinse or no treatment. • Antimicrobial mouth rinse was used twice daily for two weeks leading up to the endoscopy. The two-week time frame was chosen as a practical end-point for the clinical study, and treatment can be for any desired period of time, i.e. to obtain the desired microbiome mix. • Baseline sample collection: Saliva, oral swab. • Samples collected at follow-up (day of endoscopy): Saliva, oral swab, esophageal brushings, gastric cardia brushings.\n(§2) Patients scheduled to undergo upper endoscopy were randomized to treatment with chlorhexidine 0.12% mouth rinse or no mouth rinse for two weeks leading up to the endoscopy. Oral samples (swabs and saliva) were collected at baseline and after two weeks. During the endoscopy, brushings of the esophagus and of the gastric cardia were collected to sample the microbiome.\nAn interim analysis was performed on the esophageal brushings collected during upper endoscopy. Approximately one half of the bacteria in the esophagus can be readily cultured. Thus, it was hypothesized that a change in the amount of culturable bacteria (either increased or decreased) would reflect a change in the proportion of culturable:non-culturable bacteria in the esophagus. Samples from the first 14 subjects (8 controls not using mouth rinse, 6 subjects using chlorhexidine mouth rinse) were collected, and solutions were prepared from these samples. The samples were then plated onto trypticase soy agar (TSA) plates with 5% sheep blood and incubated for 18 hours at 37° C."}, "esophageal microbiome": {"system": "esophageal microbiome", "test": "16S rRNA gene sequencing of esophageal brushings, randomized trial of antimicrobial mouth rinse", "from_the_text": "as §1, §2\n(§3) 16 S rRNA gene sequencing was performed on all of the biosamples. The V3-V4 hypervariable region for all samples was sequenced using the Illumina HiSeq 2500 in Rapid Mode with 2×300 bp read length (Illumina, San Diego, Calif.). The Greengenes reference database was used. Taxonomic units were clustered at 97% sequence similarity using USEARCH and taxonomic assignments were made using mothur. A phylogenetic tree of the contigs was generated with FastTree version 2.1.7.\nIn order to determine whether chlorhexidine alters the esophageal microbiome, a comparison of the microbiome composition from esophageal samples was performed, comparing the treatment and no treatment arms."}, "salivary microbiome": {"system": "salivary microbiome", "test": "16S rRNA gene sequencing of saliva, randomized trial of antimicrobial mouth rinse", "conditions": "LEfSe", "from_the_text": "as §1, §2\nas §3, with “A phylogenetic tree of the contigs was generated with FastTree version 2.1.7.” left out"}, "[2]": {"conditions": "0.12% mouth rinse twice daily for two weeks before endoscopy, n = 6, plated on TSA, 18 hours at 37° C."}}}
{"smiles": "[H]/N=C(\\N/C(=N/[H])NCCCCCCNC(=N)NC(=N)Nc1ccc(Cl)cc1)Nc1ccc(Cl)cc1", "note": "[Chlorhexidine, chlorhexidine]", "values": [{"measurement": "Mean (SE) CFU/mL from esophageal brushings collected at endoscopy", "setting": "[1]; [2]", "value": "56,433 (42,654) CFU/mL"}, {"measurement": "Mean (SE) number of colonies from esophageal brushings collected at endoscopy", "setting": "[1]; [2]", "value": "282 (213)"}, {"measurement": "numbers of culturable bacteria (colonies and CFU/mL) in the esophagus compared to no chlorhexidine rinse", "setting": "[1]; FIGS. 3A-B", "value": "increased numbers of culturable bacteria"}, {"measurement": "increase in growth of culturable bacteria compared to the arm not receiving mouth rinse", "setting": "[1]; esophageal brushings, 6 subjects using rinse vs 8 controls", "value": 68, "unit": "%"}, {"measurement": "beta diversity analysis of esophageal microbiome, clustering by treatment group", "setting": "esophageal microbiome; FIG. 5", "value": "significant clustering by treatment group"}, {"measurement": "esophageal microbiome composition compared to patients receiving no treatment", "setting": "esophageal microbiome; FIGS. 5-6", "value": "markedly distinct"}, {"measurement": "relative abundance of Haemophilus in the esophageal microbiome", "setting": "esophageal microbiome; vs no treatment arm, FIG. 6", "value": "significantly decreased"}, {"measurement": "relative abundance of Streptococcus in the esophageal microbiome", "setting": "esophageal microbiome; vs no treatment arm, FIG. 6", "value": "increased"}, {"measurement": "taxonomic changes in salivary microbiome after treatment compared to baseline", "setting": "salivary microbiome; 2 weeks' treatment, FIG. 4A", "value": "Numerous taxa were altered"}, {"measurement": "differences in salivary microbiome at follow-up versus no treatment in phylum Firmicutes and species Haemophilus parainfluenzae", "setting": "salivary microbiome; follow-up, FIG. 4B", "value": "large differences were seen"}]}
